# Results published in EP4578856A1, “HETEROCYCLIC COMPOUND” (Ubience Inc., priority 2022, dated 2024).
# Molecular target: ROCK2 protein (Homo sapiens, UniProt O75116)
# Assay: Degradation inducing activity of ROCK2 protein in HUVEC cells, Western blotting (Simple Western JESS)
# Assay type: cell-based
# Set-up: endogenous in cells; host or cells: HUVEC (ATCC CRL-1730)
# Conditions: for inhibition at 1 µM / inhibition at 10 µM: HUVEC, 24 h; for ROCK2 protein degradation rate: 24 hours
# Summary of the method: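 HUVEC cells treated 24 h with compound at 10 µM or 1 µM, then lysed; ROCK2 quantified by capillary Western (Simple Western JESS) using rabbit mAb D1B1, normalized to total loaded protein. Degradation rate (%) calculated relative to DMSO control set at 100%, binned A ≥75%, B 50–75%, C 25–50%, D <25%.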
# Chain of ROCK2 protein (O75116 whole entry): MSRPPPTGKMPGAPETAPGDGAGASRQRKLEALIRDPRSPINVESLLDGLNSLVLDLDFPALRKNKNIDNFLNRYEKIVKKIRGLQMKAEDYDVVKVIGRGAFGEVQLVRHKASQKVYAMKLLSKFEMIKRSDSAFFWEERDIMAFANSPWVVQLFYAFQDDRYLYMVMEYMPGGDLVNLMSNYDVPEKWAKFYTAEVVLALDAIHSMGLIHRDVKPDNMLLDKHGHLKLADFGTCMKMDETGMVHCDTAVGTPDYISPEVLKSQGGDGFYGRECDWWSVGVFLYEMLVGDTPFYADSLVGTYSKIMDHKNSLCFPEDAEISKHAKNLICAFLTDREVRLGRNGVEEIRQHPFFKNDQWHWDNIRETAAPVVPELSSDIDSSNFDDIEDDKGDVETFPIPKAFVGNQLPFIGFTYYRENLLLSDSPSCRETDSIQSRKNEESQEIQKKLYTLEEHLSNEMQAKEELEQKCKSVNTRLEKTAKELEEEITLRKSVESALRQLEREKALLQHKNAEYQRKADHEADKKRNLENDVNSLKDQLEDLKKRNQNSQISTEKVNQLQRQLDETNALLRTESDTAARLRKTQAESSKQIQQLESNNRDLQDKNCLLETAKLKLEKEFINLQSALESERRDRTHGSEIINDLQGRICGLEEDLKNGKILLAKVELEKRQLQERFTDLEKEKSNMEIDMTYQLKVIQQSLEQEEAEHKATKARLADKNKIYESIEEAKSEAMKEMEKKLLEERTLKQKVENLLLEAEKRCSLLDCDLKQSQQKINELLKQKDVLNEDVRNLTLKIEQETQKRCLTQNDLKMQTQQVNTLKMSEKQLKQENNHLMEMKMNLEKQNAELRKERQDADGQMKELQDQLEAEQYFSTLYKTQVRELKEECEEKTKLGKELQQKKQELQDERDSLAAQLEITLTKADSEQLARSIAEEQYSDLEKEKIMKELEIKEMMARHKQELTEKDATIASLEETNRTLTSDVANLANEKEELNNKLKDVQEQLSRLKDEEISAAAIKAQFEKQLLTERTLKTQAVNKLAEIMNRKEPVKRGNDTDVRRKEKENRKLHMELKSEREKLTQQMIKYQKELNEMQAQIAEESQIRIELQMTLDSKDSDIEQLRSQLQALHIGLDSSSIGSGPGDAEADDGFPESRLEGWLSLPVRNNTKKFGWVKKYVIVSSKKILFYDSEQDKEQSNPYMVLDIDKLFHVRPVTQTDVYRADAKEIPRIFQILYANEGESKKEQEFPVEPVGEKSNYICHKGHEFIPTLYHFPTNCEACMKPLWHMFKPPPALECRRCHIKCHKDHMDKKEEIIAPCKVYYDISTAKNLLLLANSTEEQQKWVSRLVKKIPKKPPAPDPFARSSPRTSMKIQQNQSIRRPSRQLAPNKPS
Structure (SMILES),inhibition at 1 µM (degradation rate at 1 µM) [%],inhibition at 10 µM (degradation rate at 10 µM) [%],ROCK2 protein degradation rate (degradation rate at 1 µM),ROCK2 protein degradation rate (degradation rate at 10 µM)
"C[C@@H]1CN(CC(=O)N2CC(C)(C)c3ncc(Cc4ccc(F)cc4)cc32)[C@@H](CN(C)CCOCCOCCN[C@H](C)c2ccc(C(=O)Nc3ccncc3)cc2)CN1 [Example 2, 4-((R)-1-((2R,5R)-1-(2-(6-(4-Fluorobenzyl)-3,3-dimethyl-2,3-dihydro-1H-pyrrolo[3,2-b]pyridin-1-yl)-2-oxoethyl)-5-methylpiperazin-2-yl)-2-methyl-5,8-dioxa-2,11-diazatridecan-12-yl)-N-(pyridin-4-yl)benzamide]",< 25,50 to 75,,
"COC[C@H]1CN[C@H](C)CN1CC(=O)N1CC(C)(C)c2nc(CN(C)CCOCCOCCOCCOCCOCCN[C@H](C)c3ccc(C(=O)Nc4ccncc4)cc3)c(Cc3ccc(F)cc3)cc21 [Example 26, 4-((R)-1-(6-(4-Fluorobenzyl)-1-(2-((2R,5R)-2-(methoxymethyl)-5-methylpiperazin-1-yl)acetyl)-3,3-dimethyl-2,3-dihydro-1H-pyrrolo[3,2-b]pyridin-5-yl)-2-methyl-5,8,11,14,17-pentaoxa-2,20-diazadocosan-21-yl)-N-(pyridin-4-yl)benzamide]",50 to 75,≥ 75,,
"COC[C@H]1CN[C@H](C)CN1CC(=O)N1CC(C)(C)c2nc(CN(C)CCOCCOCCOCCOCCOCCOCCNC[C@@H](C(=O)Nc3ccc4cnccc4c3)c3ccccc3)c(Cc3ccc(F)cc3)cc21 [Example 41, (S)-1-(6-(4-Fluorobenzyl)-1-(2-((2R,5R)-2-(methoxymethyl)-5-methylpiperazin-1-yl)acetyl)-3,3-dimethyl-2,3-dihydro-1H-pyrrolo[3,2-b]pyridin-5-yl)-N-(isoquinolin-6-yl)-2-methyl-25-phenyl-5,8,11,14,17,20-hexaoxa-2,23-diazahexacosan-26-amide]",50 to 75,≥ 75,,
"C[C@@H]1CN(CC(=O)N2CC(C)(C)c3ncc(Cc4ccc(F)cc4)cc32)[C@@H](CN(C)CCOCCN[C@H](Cc2cccc(F)c2)C(=O)Nc2ccc(-c3ccncc3)cc2)CN1 [Example 8, (R)-2-((2-(2-((((2R,5R)-1-(2-(6-(4-Fluorobenzyl)-3,3-dimethyl-2,3-dihydro-1H-pyrrolo[3,2-b]pyridin-1-yl)-2-oxoethyl)-5-methylpiperazin-2-yl)methyl) (methyl)amino)ethoxy)ethyl)amino)-3-(3-fluorophenyl)-N-(4-(pyridin-4-yl)phenyl)propanamide]",25 to 50,≥ 75,,
"C[C@@H]1CN(CC(=O)N2CC(C)(C)c3ncc(Cc4ccc(F)cc4)cc32)[C@@H](CN(C)CCOCCNC[C@@H](C(=O)Nc2ccc3cnccc3c2)c2ccccc2)CN1 [Example 15, (S)-3-((2-(2-((((2R,5R)-1-(2-(6-(4-Fluorobenzyl)-3,3-dimethyl-2,3-dihydro-1H-pyrrolo[3,2-b]pyridin-1-yl)-2-oxoethyl)-5-methylpiperazin-2-yl)methyl)(methyl)amino)ethoxy)ethyl)amino)-N-(isoquinolin-6-yl)-2-phenylpropanamide]",< 25,≥ 75,,
"COC[C@H]1CN[C@H](C)CN1CC(=O)N1CC(C)(C)c2nc(CN(C)CCOCCOCCOCCOCCOCCOCCOCCN[C@H](C)c3ccc(C(=O)Nc4ccncc4)cc3)c(Cc3ccc(F)cc3)cc21 [Example 28, 4-((R)-1-(6-(4-Fluorobenzyl)-1-(2-((2R,5R)-2-(methoxymethyl)-5-methylpiperazin-1-yl)acetyl)-3,3-dimethyl-2,3-dihydro-1H-pyrrolo[3,2-b]pyridin-5-yl)-2-methyl-5,8,11,14,17,20,23-heptaoxa-2,26-diazaoctacosan-27-yl)-N-(pyridin-4-yl)benzamide]",50 to 75,< 25,,
"COC[C@H]1CN[C@H](C)CN1CC(=O)N1CC(C)(C)c2ncc(Cc3ccccc3OCCOCCN[C@H](C)c3ccc(C(=O)Nc4ccncc4)cc3)cc21 [Example 64, 4-((R)-1-((2-(2-(2-((1-(2-((2R,5R)-2-(Methoxymethyl)-5-methylpiperazin-1-yl)acetyl)-3,3-dimethyl-2,3-dihydro-1H-pyrrolo[3,2-b]pyridin-6-yl)methyl)phenoxy)ethoxy)ethyl)amino)ethyl)-N-(pyridin-4-yl)benzamide]",< 25,50 to 75,,
"COC[C@H]1CN[C@H](C)CN1CC(=O)N1CC(C)(C)c2ncc(Cc3ccccc3OCCOCCOCCN[C@H](C)c3ccc(C(=O)Nc4ccncc4)cc3)cc21 [Example 65, 4-((R)-1-((2-(2-(2-(2-((1-(2-((2R,5R)-2-(Methoxymethyl)-5-methylpiperazin-1-yl)acetyl)-3,3-dimethyl-2,3-dihydro-1H-pyrrolo[3,2-b]pyridin-6-yl)methyl)phenoxy)ethoxy)ethoxy)ethyl)amino)ethyl)-N-(pyridin-4-yl)benzamide]",,,D (D < 25%),B (75% > B ≥ 50%)
"COC[C@H]1CN[C@H](C)CN1CC(=O)N1CC(C)(C)c2nc(CN(C)CCOCCOCCN[C@H](Cc3cccc(F)c3)C(=O)Nc3ccc(-c4ccncc4)cc3)c(Cc3ccc(F)cc3)cc21 [Example 30, (R)-12-(3-Fluorobenzyl)-1-(6-(4-fluorobenzyl)-1-(2-((2R,5R)-2-(methoxymethyl)-5-methylpiperazin-1-yl)acetyl)-3,3-dimethyl-2,3-dihydro-1H-pyrrolo[3,2-b]pyridin-5-yl)-2-methyl-N-(4-(pyridin-4-yl)phenyl)-5,8-dioxa-2,11-diazatridecan-13-amide]",< 25,< 25,,
"COC[C@H]1CN[C@H](C)CN1CC(=O)N1CC(C)(C)c2nc(CN(C)CCOCCOCCOCCOCCOCCNC[C@@H](C(=O)Nc3ccc4cnccc4c3)c3ccccc3)c(Cc3ccc(F)cc3)cc21 [Example 40, (S)-1-(6-(4-Fluorobenzyl)-1-(2-((2R,5R)-2-(methoxymethyl)-5-methylpiperazin-1-yl)acetyl)-3,3-dimethyl-2,3-dihydro-1H-pyrrolo[3,2-b]pyridin-5-yl)-N-(isoquinolin-6-yl)-2-methyl-22-phenyl-5,8,11,14,17-pentaoxa-2,20-diazatricosan-23-amide]",25 to 50,50 to 75,,
"COC[C@H]1CN[C@H](C)CN1CC(=O)N1CC(C)(C)c2ncc(Cc3cccc(OCCOCCOCCOCCN[C@H](Cc4cccc(F)c4)C(=O)Nc4ccc(-c5ccncc5)cc4)c3)cc21 [Example 52, (R)-2-(3-Fluorobenzyl)-14-(3-((1-(2-((2R,5R)-2-(methoxymethyl)-5-methylpiperazin-1-yl)acetyl)-3,3-dimethyl-2,3-dihydro-1H-pyrrolo[3,2-b]pyridin-6-yl)methyl)phenoxy)-N-(4-(pyridin-4-yl)phenyl)-6,9,12-trioxa-3-azatetradecanamide]",25 to 50,50 to 75,,
"COC[C@H]1CN[C@H](C)CN1CC(=O)N1CC(C)(C)c2nc(CN(C)CCOCCOCCOCCOCCOCCOCCN[C@H](Cc3cccc(F)c3)C(=O)Nc3ccc(-c4ccncc4)cc3)c(Cc3ccc(F)cc3)cc21 [Example 34, (R)-24-(3-Fluorobenzyl)-1-(6-(4-fluorobenzyl)-1-(2-((2R,5R)-2-(methoxymethyl)-5-methylpiperazin-1-yl)acetyl)-3,3-dimethyl-2,3-dihydro-1H-pyrrolo[3,2-b]pyridin-5-yl)-2-methyl-N-(4-(pyridin-4-yl)phenyl)-5,8,11,14,17,20-hexaoxa-2,23-diazapentacosan-25-amide]",< 25,≥ 75,,
"COC[C@H]1CN[C@H](C)CN1CC(=O)N1CC(C)(C)c2nc(CN(C)CCOCCOCCN[C@H](C)c3ccc(C(=O)Nc4ccncc4)cc3)c(Cc3ccc(F)cc3)cc21 [Example 23, 4-((R)-1-(6-(4-Fluorobenzyl)-1-(2-((2R,5R)-2-(methoxymethyl)-5-methylpiperazin-1-yl)acetyl)-3,3-dimethyl-2,3-dihydro-1H-pyrrolo[3,2-b]pyridin-5-yl)-2-methyl-5,8-dioxa-2,11-diazatridecan-12-yl)-N-(pyridin-4-yl)benzamide]",≥ 75,≥ 75,,
"C[C@@H]1CN(CC(=O)N2CC(C)(C)c3ncc(Cc4ccc(F)cc4)cc32)[C@@H](CN(C)CCOCCOCCOCCOCCN[C@H](C)c2ccc(C(=O)Nc3ccncc3)cc2)CN1 [Example 4, 4-((R)-1-((2R,5R)-1-(2-(6-(4-Fluorobenzyl)-3,3-dimethyl-2,3-dihydro-1H-pyrrolo[3,2-b]pyridin-1-yl)-2-oxoethyl)-5-methylpiperazin-2-yl)-2-methyl-5,8,11,14-tetraoxa-2,17-diazanonadecan-18-yl)-N-(pyridin-4-yl)benzamide]",≥ 75,≥ 75,,
"COC[C@H]1CN[C@H](C)CN1CC(=O)N1CC(C)(C)c2ncc(Cc3cccc(OCCOCCOCCOCCOCCNC[C@@H](C(=O)Nc4ccc5cnccc5c4)c4ccccc4)c3)cc21 [Example 60, (S)-N-(Isoquinolin-6-yl)-1-(3-((1-(2-((2R,5R)-2-(methoxymethyl)-5-methylpiperazin-1-yl)acetyl)-3,3-dimethyl-2,3-dihydro-1H-pyrrolo[3,2-b]pyridin-6-yl)methyl)phenoxy)-17-phenyl-3,6,9,12-tetraoxa-15-azaoctadecan-18-amide]",25 to 50,≥ 75,,
"COC[C@H]1CN[C@H](C)CN1CC(=O)N1CC(C)(C)c2ncc(Cc3cccc(OCCOCCOCCOCCN[C@H](C)c4ccc(C(=O)Nc5ccncc5)cc4)c3)cc21 [Example 45, 4-((R)-14-(3-((1-(2-((2R,5R)-2-(Methoxymethyl)-5-methylpiperazin-1-yl)acetyl)-3,3-dimethyl-2,3-dihydro-1H-pyrrolo[3,2-b]pyridin-6-yl)methyl)phenoxy)-6,9,12-trioxa-3-azatetradecan-2-yl)-N-(pyridin-4-yl)benzamide]",< 25,50 to 75,,
